Laboratory results from patent publication US10562891B2, “Quinazolinones as PARP14 inhibitors” (Ribon Therapeutics Inc., priority 2017, dated 2020).
pIC50: −log10 of the molar value. Structures can show the parent of a compound that is named as a salt.

Each molecule was assayed against catalytic domain of human PARP14 (Homo sapiens (Human), UniProt Q460N5) (assay: Enzymatic assay for inhibition of PARP14 (DELFIA, auto-modification with biotin-NAD)). Conditions: auto-modification of PARP14 by biotin-NAD, 50 nM PARP14, 3 μM biotin-NAD.
Sequence of catalytic domain of human PARP14 (Q460N5 1611-1801): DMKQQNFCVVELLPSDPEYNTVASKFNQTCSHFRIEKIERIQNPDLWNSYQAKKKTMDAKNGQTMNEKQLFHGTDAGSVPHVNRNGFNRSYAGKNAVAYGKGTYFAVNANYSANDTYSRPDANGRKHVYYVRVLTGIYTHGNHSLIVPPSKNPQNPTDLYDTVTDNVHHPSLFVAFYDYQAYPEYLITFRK
Assay type: biochemical
Procedure, shortened: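 DELFIA auto-modification read-out: europium-streptavidin bound to biotin-NAD incorporated onto nickel-captured His-TEV PARP14 catalytic domain. Compound preincubated 30 min, then 50 nM enzyme with 3 μM biotin-NAD reacted 3 h, all at 25 °C, pH 8, then NAD quench. Percent inhibition normalized to rucaparib/DMSO wells, fitted (4- or 3-parameter) for IC50.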

Compared with `O=c1[nH]c(CSC2CCOCC2)nc2cc(NCCC3CCCC3)ccc12` [Example 252, 7-((2-Cyclopentylethyl)amino)-2-(((tetrahydro-2H-pyran-4-yl)thio)methyl)quinazolin-4(3H)-one], `O=c1[nH]c(CSC2CCOCC2)nc2cc(NC3CCNCC3)ccc12` [Example 129, 7-(Piperidin-4-ylamino)-2-(((tetrahydro-2H-pyran-4-yl)thio)methyl) quinazolin-4(3H)-one] is lower in pIC50: > 6.00 for the first, 5.00 to 6.00 for the second. The first is the more potent here.

First: CN(c1ccc2c(=O)[nH]c(CSC3CCOCC3)nc2c1)C1CCCCC1 [Example 125, 7-(Cyclohexyl(methyl)amino)-2-(((tetrahydro-2H-pyran-4-yl)thio)methyl)quinazolin-4(3H)-one]
Second: CN1CCC(Nc2ccc3c(=O)[nH]c(CSC4CCOCC4)nc3c2)CC1 [Example 113, 7-((1-Methylpiperidin-4-yl)amino)-2-(((tetrahydro-2H-pyran-4-yl)thio)methyl)quinazolin-4(3H)-one]
The pIC50 of the first is higher: 5.00 to 6.00 for the first, < 5.00 for the second. The first is the more potent here.

`CN1CCOC(COc2cc(F)c3c(=O)[nH]c(CSC4CCOCC4)nc3c2)C1` (centres unmarked) [Example 414] and `O=c1[nH]c(CSC2CCOCC2)nc2cc(OC[C@H]3CCCO3)cc(F)c12` [Example 321a, (R)-5-Fluoro-2-(((tetrahydro-2H-pyran-4-yl)thio)methyl)-7-((tetrahydrofuran-2-yl)methoxy)quinazolin-4(3H)-one] cannot be ordered by pIC50: > 6.00 for the first, > 6.00 for the second.

`O=c1[nH]c(CSC2CCC(O)CC2)nc2cc(Nc3ccccc3)ccc12` (centres unmarked) [Example 97, 2-(((4-Hydroxycyclohexyl)thio)methyl)-7-(phenylamino)quinazolin-4(3H)-one] and `Cc1cncc(Nc2ccc3c(=O)[nH]c(CSC4CCOCC4)nc3c2)c1` [Example 92, 7-((5-Methylpyridin-3-yl)amino)-2-(((tetrahydro-2H-pyran-4-yl)thio)methyl)quinazolin-4(3H)-one] fall in the same range of pIC50: 5.00 to 6.00 for the first, 5.00 to 6.00 for the second.

`Nc1cnn(-c2ccc3c(=O)[nH]c(CSC4CCOCC4)nc3c2)c1` [Example 93, 7-(4-Amino-1H-pyrazol-1-yl)-2-(((tetrahydro-2H-pyran-4-yl)thio)methyl) quinazolin-4(3H)-one Trifluoroacetate] and `CC(=O)Nc1ccc2c(=O)[nH]c(CSC3CCOCC3)nc2c1` [Example 75, N-(4-Oxo-2-(((tetrahydro-2H-pyran-4-yl)thio)methyl)-3,4-dihydroquinazolin-7-yl)acetamide] cannot be ordered by pIC50: < 5.00 for the first, < 5.00 for the second.

`CC(C)Nc1ccc2c(=O)[nH]c(CSC3CCOCC3)nc2c1` [Example 116, 7-(Isopropylamino)-2-(((tetrahydro-2H-pyran-4-yl)thio)methyl)quinazolin-4(3H)-one] and `O=c1[nH]c(CSC2CCOCC2)nc2cc(NC3CCOC3)ccc12` (centres unmarked) [Example 121, 2-(((Tetrahydro-2H-pyran-4-yl)thio)methyl)-7-((tetrahydrofuran-3-yl)amino)quinazolin-4(3H)-one] cannot be ordered by pIC50: > 6.00 for the first, > 6.00 for the second.

Compared with `CC(=O)N1CCCC(Nc2ccc3c(=O)[nH]c(CSC4CCOCC4)nc3c2)C1` (centres unmarked) [Example 132, 7-((1-Acetylpiperidin-3-yl)amino)-2-(((tetrahydro-2H-pyran-4-yl)thio)methyl)quinazolin-4(3H)-one], `CS(=O)(=O)N1CC(Nc2ccc3c(=O)[nH]c(CSC4CCOCC4)nc3c2)C1` [Example 195, 7-((1-(methylsulfonyl)azetidin-3-yl)amino)-2-(((tetrahydro-2H-pyran-4-yl)thio)methyl)quinazolin-4(3H)-one] is higher in pIC50: < 5.00 for the first, > 6.00 for the second. The second is the more potent here.

`CS(=O)(=O)N1CCC[C@@H](Nc2ccc3c(=O)[nH]c(CSC4CCNCC4)nc3c2)C1` [Example 196, (R)-7-((1-(methylsulfonyl)piperidin-3-yl)amino)-2-((piperidin-4-ylthio)methyl)quinazolin-4(3H)-one] and `O=c1[nH]c(CSC2CCN(CC(F)F)CC2)nc2cc(NC3CCCC3)ccc12` [Example 258, 7-(Cyclopentylamino)-2-(((1-(2,2-difluoroethyl)piperidin-4-yl)thio)methyl)quinazolin-4(3H)-one] cannot be ordered by pIC50: > 6.00 for the first, > 6.00 for the second.

`Cc1cccc2c(=O)[nH]c(CS[C@H]3CC[C@@H](N)CC3)nc12` [Example 50, 2-(((cis-4-Aminocyclohexyl)thio)methyl)-8-methylquinazolin-4(3H)-one Trifluoroacetic Acid] and `Cc1cccc2c(=O)[nH]c(CSC3CCN(C)CC3)nc12` [Example 14, 8-Methyl-2-(((1-methylpiperidin-4-yl)thio)methyl)quinazolin-4(3H)-one] fall in the same range of pIC50: 5.00 to 6.00 for the first, 5.00 to 6.00 for the second.

`CN1CC[C@@H](COc2cc(F)c3c(=O)[nH]c(CS[C@H]4CC[C@H](O)CC4)nc3c2)[C@H](F)C1` [Example 335a, 5-fluoro-7-(((3S,4S)-3-fluoro-1-methylpiperidin-4-yl)methoxy)-2-((((trans)-4-hydroxycyclohexyl)thio)methyl)quinazolin-4(3H)-one] and `CC(=O)N1CCC(COc2cc(F)c3c(=O)[nH]c(CS[C@H]4CC[C@@H](O)CC4)nc3c2)CC1` [Example 422] cannot be ordered by pIC50: > 6.00 for the first, > 6.00 for the second.

`Cc1cc(OCC2CCC2)cc2nc(CSC3CCOCC3)[nH]c(=O)c12` [Example 237, 7-(Cyclobutylmethoxy)-5-methyl-2-(((tetrahydro-2H-pyran-4-yl)thio)methyl)quinazolin-4(3H)-one] and `N#Cc1cc(OCC2CCOC2)cc2nc(CSC3CCOCC3)[nH]c(=O)c12` (centres unmarked) [Example 383] cannot be ordered by pIC50: > 6.00 for the first, > 6.00 for the second.

`Cc1ccc(F)c2c(=O)[nH]c(CS[C@H]3CC[C@H](O)CC3)nc12` [Example 57, 5-Fluoro-2-(((trans-4-hydroxycyclohexyl)thio)methyl)-8-methylquinazolin-4(3H)-one] and `O=c1[nH]c(CS[C@H]2CC[C@H](O)CC2)nc2cc(OCC3CCCOC3)cc(F)c12` (stereo partly drawn) [Example 318, 5-Fluoro-2-(((trans-4-hydroxycyclohexyl)thio)methyl)-7-((tetrahydro-2H-pyran-3-yl)methoxy)quinazolin-4(3H)-one] cannot be ordered by pIC50: > 6.00 for the first, > 6.00 for the second.

`Cc1cccc2c(=O)[nH]c(CSC3CCN(CCO)CC3)nc12` [Example 162, 2-(((1-(2-Hydroxyethyl)piperidin-4-yl)thio)methyl)-8-methylquinazolin-4(3H)-one] and `Cc1cccc2c(=O)[nH]c(CSC3CCN(Cc4ccc(N(C)C)cc4)CC3)nc12` [Example 140, 2-(((1-(4-(Dimethylamino)benzyl)piperidin-4-yl)thio)methyl)-8-methylquinazolin-4(3H)-one trifluoroacetate] cannot be ordered by pIC50: > 6.00 for the first, > 6.00 for the second.

First: O=c1[nH]c(CSC2CCOCC2)nc2c(Cl)cccc12 [Example 5]
Second: Cc1ccnc2c(=O)[nH]c(CSC3CCOCC3)nc12 [Example 41, 8-Methyl-2-(((tetrahydro-2H-pyran-4-yl)thio)methyl)pyrido[3,2-d]pyrimidin-4(3H)-one]
The pIC50 of the first is higher: 5.00 to 6.00 for the first, < 5.00 for the second. The first is the more potent here.

`CCC(=O)N1CCC(COc2cc(F)c3c(=O)[nH]c(CSC4CCOCC4)nc3c2)CC1` [Example 398] and `O=c1[nH]c(CSC2CCOCC2)nc2cc(OCC3CCCN(CC(F)F)C3)cc(F)c12` (centres unmarked) [Example 312, 7-((1-(2,2-Difluoroethyl)piperidin-3-yl)methoxy)-5-fluoro-2-(((tetrahydro-2H-pyran-4-yl)thio)methyl)quinazolin-4(3H)-one] cannot be ordered by pIC50: > 6.00 for the first, > 6.00 for the second.

`O=c1[nH]c(CSC2CCOCC2)nc2cc(OCC3COCCO3)cc(F)c12` (centres unmarked) [Example 344] and `CC(=O)N[C@H]1C[C@H](SCc2nc3cc(OCC4CCOCC4)cc(F)c3c(=O)[nH]2)C1` [Example 393] cannot be ordered by pIC50: > 6.00 for the first, > 6.00 for the second.

`COc1cc(NC2CCCC2)cc2nc(CSC3CCOCC3)[nH]c(=O)c12` [Example 207, 7-(Cyclopentylamino)-5-methoxy-2-(((tetrahydro-2H-pyran-4-yl)thio)methyl)quinazolin-4(3H)-one] and `O=c1[nH]c(CSC2CCOCC2)nc2cc(NC3CCCC3)cc(CF)c12` [Example 225, 7-(cyclopentylamino)-5-(fluoromethyl)-2-(((tetrahydro-2H-pyran-4-yl)thio)methyl)quinazolin-4(3H)-one] cannot be ordered by pIC50: < 5.00 for the first, < 5.00 for the second.

`O=c1[nH]c(CSC2CCOCC2)nc2cc(NC3CCN(C4COC4)CC3)cc(F)c12` [Example 302, 5-Fluoro-7-((1-(oxetan-3-yl)piperidin-4-yl)amino)-2-(((tetrahydro-2H-pyran-4-yl)thio)methyl)quinazolin-4(3H)-one] and `CCO[C@H]1C[C@@H](Nc2cc3nc(CSC4CCOCC4)[nH]c(=O)c3c(F)c2F)C1` [Example 331, 7-(((cis)-3-Ethoxycyclobutyl)amino)-5,6-difluoro-2-(((tetrahydro-2H-pyran-4-yl)thio)methyl)quinazolin-4(3H)-one] cannot be ordered by pIC50: > 6.00 for the first, > 6.00 for the second.

`O=c1[nH]c(CS[C@H]2CC[C@@H](CO)CC2)nc2cc(NC3CCCCC3)ccc12` [Example 137, 7-(Cyclohexylamino)-2-(((cis-4-(hydroxymethyl)cyclohexyl)thio)methyl) quinazolin-4(3H)-one] and `CO[C@H]1C[C@@H](Nc2cc3nc(CS[C@H]4CC[C@H](NC(C)=O)CC4)[nH]c(=O)c3c(F)c2F)C1` [Example 389] cannot be ordered by pIC50: > 6.00 for the first, > 6.00 for the second.

`Cc1cccc2c(=O)[nH]c(CSC3CCN(Cc4ccc5c(c4)OCCN5C)CC3)nc12` [Example 158, 8-Methyl-2-(((1-((4-methyl-3,4-dihydro-2H-benzo[b][1,4]oxazin-7-yl)methyl)piperidin-4-yl)thio)methyl)quinazolin-4(3H)-one trifluoroacetate] and `CC(=O)Nc1cccc(CN2CCC(SCc3nc4c(C)cccc4c(=O)[nH]3)CC2)c1` [Example 150, N-(3-((4-(((8-Methyl-4-oxo-3,4-dihydroquinazolin-2-yl)methyl)thio)piperidin-1-yl)methyl)phenyl)acetamide trifluoroacetate] fall in the same range of pIC50: 5.00 to 6.00 for the first, 5.00 to 6.00 for the second.

For `O=c1[nH]c(CSC2CCNCC2)nc2cc(NCC3CC3(F)F)cc(F)c12` (centres unmarked) [Example 262, 7-(((2,2-Difluorocyclopropyl)methyl)amino)-5-fluoro-2-((piperidin-4-ylthio)methyl)quinazolin-4(3H)-one], the pIC50 was > 6.00.
